Measurements published in patent publication US12433899B2, “Therapeutics and method for treating osteoarthritis” (Calosyn Pharma Inc., priority 2021, dated 2025).

System: medial meniscal tear-induced cartilage degeneration
Assay: Rat medial meniscal tear model, knee histopathology after intra-articular dosing
Assay type: in vivo, Male Lewis rats
Conditions: IA 3 μg (each) Q4D days 4, 8, 12, 16, 20, 24; vs Q4D vehicle controls
Experimental: This model is performed by transection of the medial collateral ligament just below its attachment to the meniscus so that when the joint space opens, the meniscus is reflected toward the femur. The meniscus is cut at its narrowest point (away from the ossicles) taking care not to damage the tibial surface and making sure that the resulting transection produces separate, freely movable anterior and posterior meniscus halves.
Experimental Design: Animals were anesthetized with Isoflurane and the right knee area was prepared for surgery. A skin incision was made over the medial aspect of the knee and the medial collateral ligament was exposed by blunt dissection, and then transected. The medial meniscus was cut through the full thickness to simulate a complete tear. Skin and subcutis were closed with 4-0 Vicryl suture. Dosing by the intra-articular (IA) route began four days after surgery and continued as indicated below until day 24. Treatment groups were as follows: […]
All three sections of each knee were analyzed microscopically. In scoring the three sections, the worst-case scenario for the two halves on each slide was determined for general cartilage degeneration, proteoglycan loss, collagen damage, and osteophyte formation. […] When zones are scored individually, scores are assigned based on % area of the zone affected. […]

COc1ccc([C@@H]2Sc3ccccc3N(CCN(C)C)C(=O)[C@@H]2OC(C)=O)cc1 [Diltiazem, 5-[2-(dimethylamino)ethyl]-2-(4-methoxyphenyl)-4-oxo-2,3,4,5-tetrahydro-1,5-benzothiazepin-3-yl acetate]
decrease in the total joint score: 6%
